Among the data in ChEMBL document CHEMBL1153990, “Exploring the PI3K alpha and gamma binding sites with 2,6-disubstituted isonicotinic derivatives” (Bioorg Med Chem Lett, 2009) are IC50, inhibition and Ratio IC50 values, retold here.

The target in experiment [1] is Phosphatidylinositol 4,5-bisphosphate 3-kinase catalytic subunit gamma isoform (Homo sapiens, UniProt P48736). Briefly: Inhibition of PI3Kgamma by luminescent kinase glo assay. For orientation: Kinase-Glo reads ATP consumption through a luciferase reaction.
Phosphatidylinositol 4,5-bisphosphate 3-kinase catalytic subunit gamma isoform, sequence (P48736 whole entry, canonical isoform): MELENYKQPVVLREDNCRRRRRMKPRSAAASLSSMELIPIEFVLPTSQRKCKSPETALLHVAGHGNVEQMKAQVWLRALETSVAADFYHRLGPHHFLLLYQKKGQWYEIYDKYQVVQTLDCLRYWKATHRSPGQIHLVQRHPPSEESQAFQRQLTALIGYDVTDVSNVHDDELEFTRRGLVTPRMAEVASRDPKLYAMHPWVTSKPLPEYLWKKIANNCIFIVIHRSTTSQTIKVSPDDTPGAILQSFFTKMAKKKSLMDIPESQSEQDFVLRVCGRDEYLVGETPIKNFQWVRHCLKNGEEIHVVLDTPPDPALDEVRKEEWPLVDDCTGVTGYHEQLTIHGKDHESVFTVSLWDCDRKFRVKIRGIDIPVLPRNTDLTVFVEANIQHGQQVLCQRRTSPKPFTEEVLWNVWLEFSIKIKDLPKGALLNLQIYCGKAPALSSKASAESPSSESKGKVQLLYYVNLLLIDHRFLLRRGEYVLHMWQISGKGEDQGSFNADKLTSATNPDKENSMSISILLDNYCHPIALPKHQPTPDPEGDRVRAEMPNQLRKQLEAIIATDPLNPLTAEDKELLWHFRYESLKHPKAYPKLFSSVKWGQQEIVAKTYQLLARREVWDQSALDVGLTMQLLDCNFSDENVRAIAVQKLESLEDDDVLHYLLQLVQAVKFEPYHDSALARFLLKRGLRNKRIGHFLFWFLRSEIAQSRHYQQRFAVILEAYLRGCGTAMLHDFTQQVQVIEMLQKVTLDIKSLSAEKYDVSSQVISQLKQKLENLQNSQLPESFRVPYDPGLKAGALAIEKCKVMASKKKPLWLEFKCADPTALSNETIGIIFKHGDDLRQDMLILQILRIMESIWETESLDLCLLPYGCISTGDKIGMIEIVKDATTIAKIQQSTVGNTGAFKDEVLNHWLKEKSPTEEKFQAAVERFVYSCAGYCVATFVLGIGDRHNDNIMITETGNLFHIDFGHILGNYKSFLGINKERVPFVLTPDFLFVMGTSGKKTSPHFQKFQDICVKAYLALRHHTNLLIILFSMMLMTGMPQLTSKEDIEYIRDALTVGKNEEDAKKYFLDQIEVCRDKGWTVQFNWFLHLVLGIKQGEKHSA
The target of experiment [2] is Phosphatidylinositol 4,5-bisphosphate 3-kinase catalytic subunit alpha isoform (Homo sapiens, UniProt P42336). In words: Inhibition of PI3Kalpha by luminescent kinase glo assay. The following applies: for inhibition: concentration not given here.
Phosphatidylinositol 4,5-bisphosphate 3-kinase catalytic subunit alpha isoform, sequence (P42336 whole entry, canonical isoform): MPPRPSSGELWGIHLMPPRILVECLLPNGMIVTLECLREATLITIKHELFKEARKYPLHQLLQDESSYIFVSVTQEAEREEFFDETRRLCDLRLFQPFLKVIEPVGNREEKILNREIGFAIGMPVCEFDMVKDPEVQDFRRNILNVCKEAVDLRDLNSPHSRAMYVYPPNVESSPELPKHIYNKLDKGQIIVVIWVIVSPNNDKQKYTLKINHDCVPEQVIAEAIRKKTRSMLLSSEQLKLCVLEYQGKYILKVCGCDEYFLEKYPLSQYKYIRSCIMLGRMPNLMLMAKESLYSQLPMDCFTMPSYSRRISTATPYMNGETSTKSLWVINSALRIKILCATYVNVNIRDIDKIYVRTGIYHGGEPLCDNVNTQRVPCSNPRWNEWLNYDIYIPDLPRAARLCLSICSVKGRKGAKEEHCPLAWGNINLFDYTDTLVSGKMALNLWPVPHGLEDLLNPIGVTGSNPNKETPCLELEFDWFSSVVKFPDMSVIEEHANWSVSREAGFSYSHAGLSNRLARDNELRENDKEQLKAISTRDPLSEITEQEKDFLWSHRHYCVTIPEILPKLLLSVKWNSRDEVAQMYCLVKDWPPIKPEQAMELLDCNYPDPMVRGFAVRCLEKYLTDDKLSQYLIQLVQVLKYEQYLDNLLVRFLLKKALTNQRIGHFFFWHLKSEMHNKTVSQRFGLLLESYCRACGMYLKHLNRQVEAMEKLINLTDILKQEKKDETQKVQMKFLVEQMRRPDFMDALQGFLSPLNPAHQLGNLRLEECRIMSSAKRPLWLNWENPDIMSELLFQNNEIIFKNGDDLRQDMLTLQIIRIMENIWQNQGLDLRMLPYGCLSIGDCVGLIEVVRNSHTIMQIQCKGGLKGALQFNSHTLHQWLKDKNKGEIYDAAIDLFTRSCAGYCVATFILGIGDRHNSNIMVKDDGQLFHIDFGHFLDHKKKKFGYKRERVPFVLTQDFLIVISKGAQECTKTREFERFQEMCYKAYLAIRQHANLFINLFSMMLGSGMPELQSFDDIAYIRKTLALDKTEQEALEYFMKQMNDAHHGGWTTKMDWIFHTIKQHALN
A short description of experiment [3]: Selectivity ratio of IC50 for PI3Kgamma to IC50 for PI3Kalpha.

As usually defined, the IC50 is the concentration at which inhibition is half-maximal. A higher IC50 goes with weaker potency. For orientation: inhibition means how much of the control response was suppressed. A lower inhibition goes with a weak effect.

Take `Cc1cc(F)ccc1NCc1cc(C(=O)O)cc(N2CCC(O)C2)n1` (stereo not drawn): the IC50 in experiment [1] and in experiment [2] was greater than 100 µM throughout.

`Cc1cc(F)ccc1NCc1cc(C(=O)O)cc(N2CCNCC2)n1`: the IC50 in experiment [1] and in experiment [2] was greater than 100 µM each time.

Regarding `Cc1cc(F)ccc1NCc1cc(C(=O)O)cc(N(CCO)CCO)n1`, the IC50 in experiment [1] and in experiment [2] was greater than 100 µM throughout.

Take `Cc1cc(F)ccc1NCc1cc(C(=O)O)cc(-c2cccc(O)c2)n1`: the IC50 was determined as 42 µM in experiment [1] and 100 µM in experiment [2].

For the compound `O=C(O)c1ccnc(N2CCOCC2)c1`, the IC50 in experiment [1] is greater than 100 µM; in experiment [2], 36 µM.

As for `Cc1cc(F)ccc1NCc1cc(C(=O)NCCO)cc(NCCO)n1`, the IC50 in experiment [1] and in experiment [2] was greater than 100 µM throughout.

In the case of `Cc1cc(F)ccc1NCc1cc(C(=O)O)cc(Cl)n1`, the IC50 in experiment [1] and in experiment [2] was greater than 100 µM each time.

The compound `Cc1cc(F)ccc1NCc1cc(C(=O)O)cc(N2CCCCC2)n1` yielded an IC50 in experiment [1] greater than 100 µM. The inhibition in experiment [2] is less than 10%.

For `Cc1cc(F)ccc1NCc1cc(C(=O)O)cc(N2CCOCC2)n1`, the IC50 was determined as 34 µM in experiment [1] and 5 µM in experiment [2].

For the compound `Cc1cc(F)ccc1NCc1cc(C(=O)O)cc(-c2cccnc2)n1`, the IC50 in experiment [1] and in experiment [2] was greater than 100 µM in each case.

With `Cc1cc(F)ccc1NCc1cc(C(=O)O)cc(-c2ccc(O)cc2)n1`, the IC50 in experiment [1] and in experiment [2] was 100 µM throughout.

Take `CCOC(=O)c1cc(COc2ccc(F)cc2C)nc(N2CCOCC2)c1`: the IC50 in experiment [1] is less than 10 µM. Further, the inhibition in experiment [2] is less than 10%.

For `Cc1cc(F)ccc1NCc1cc(C(=O)O)cc(-c2ccncc2)n1`, the IC50 was found to be 42 µM in experiment [1] and 29 µM in experiment [2].

Consider `Cc1cc(F)ccc1NCc1cc(CO)cc(N2CCOCC2)n1`, for which the values for the IC50 in experiment [1] and in experiment [2] were no less than 100 µM and 20 µM, respectively.

For `Cc1cc(F)ccc1OCc1cc(C(=O)O)cc(N2CCOCC2)n1`, the IC50 in experiment [1] was found to be 23 µM; in experiment [2] it was 7 µM. Also, the Ratio IC50 in experiment [3] was 6.

As to `Cc1cc(F)ccc1OCc1cc(C(=O)NO)cc(N2CCOCC2)n1`, the IC50 in experiment [1] was 10 µM; in experiment [2], no less than 10 µM.

Take `Cc1cc(F)ccc1OCc1cc(C(=O)NCCO)cc(N2CCOCC2)n1`: the IC50 in experiment [1] and in experiment [2] was no less than 50 µM in each case.

On to `Cc1cc(F)ccc1OCc1cc(C(N)=O)cc(N2CCOCC2)n1`, for which the results for the IC50 in experiment [1] and in experiment [2] were less than 10 µM and greater than 10 µM, respectively.

`Cc1cc(F)ccc1NCc1cc(C(=O)O)cc(N(C)CCO)n1`: the IC50 in experiment [1] and in experiment [2] was greater than 100 µM throughout.

In experiment [1], `CCOC(=O)c1cc(CNc2ccc(F)cc2C)nc(N2CCOCC2)c1` displayed an IC50 of less than 10 µM. The compound also showed an inhibition in experiment [2] of less than 10%.

On to `Cc1cc(F)ccc1NCc1cc(C=O)cc(N2CCOCC2)n1`, for which the IC50 in experiment [1] and in experiment [2] was 100 µM each time.

Consider `CCOC(=O)c1ccnc(N2CCOCC2)c1`, for which the IC50 was greater than 100 µM in experiment [1] and 51 µM in experiment [2].

In the case of `Cc1cc(F)ccc1NCc1cc(C(=O)O)cc(NCCO)n1`, the IC50 was greater than 100 µM in experiment [1] and 100 µM in experiment [2].

For the compound `Cc1cc(F)ccc1NCc1cc(C(=O)N2CCC(O)C2)cc(N2CCC(O)C2)n1` (stereo not drawn), the IC50 in experiment [1] and in experiment [2] was greater than 100 µM in each case.

As to `Cc1cc(F)ccc1NCc1cc(C(=O)O)cc(N2CCCC2)n1`, in experiment [1], the IC50 was greater than 100 µM. The compound further registered an inhibition in experiment [2] of less than 10%.

As for `Cc1cc(F)ccc1NCc1cc(C(=O)O)cc(-c2ccccc2O)n1`, the 50% inhibitory concentration (IC50) in experiment [1] and in experiment [2] was greater than 100 µM in each case.
